Laboratory results published in paper PMC9728921, “Characterization of a KDM5 small molecule inhibitor with antiviral activity against hepatitis B virus” (PLOS ONE, 2022).

Legend:
[1] = molecular target: KDM3B (Homo sapiens, UniProt Q7LBC6); experiment: KDM3B enzymatic assay (AlphaLISA); assay type: biochemical
Protocol: (§1) The following assay protocol was used for all histone demethylases tested except KDM1A, KDM5A, B, and D, which are described below. Compounds were serially diluted into a 384-well Alpha plate as a DMSO solution and mixed with 5 μL reaction buffer (buffer A) containing 50 mM HEPES (pH 7.0), 0.1% BSA, and 0.003% Tween-20. The enzyme of interest was pre-incubated with 15 μM of Fe^2+ for 10 min (except 30 min for KDM2B) in reaction buffer A. 5 μL of the enzyme mixture was added to each of the compound-containing wells and incubated for 10 min. The reaction was started by addition of a 5 μL mixture containing 300 nM peptide substrate, 75 μM L-ascorbic acid, and 30 μM α-ketoglutarate in buffer A. This final 15 μL of reaction mixture was incubated for 20 min for KDM5B and 1 hour for the other KDM enzymes. The reaction was quenched with 10 μL of diluted AlphaLISA Acceptor beads (1:400) in Epigenetics Buffer and incubated for 60 min. The Donor beads were diluted 1:400 into Epigenetics Buffer in the dark and 10 μL of this was added to each well and incubated for another 60 min in the dark. The assay plates were read on an Enspire plate reader (PerkinElmer) using a standard AlphaLISA program.
(§2) Data was analyzed using GraphPad Prism 6.0 (La Jolla, CA). […] IC50 values were calculated as an average of at least two independent experiments.

[2] = molecular target: T1, KDM4B (Homo sapiens, UniProt O94953); experiment: KDM4B enzymatic assay (AlphaLISA); assay type: biochemical
T1 sequence (O94953 1-1096): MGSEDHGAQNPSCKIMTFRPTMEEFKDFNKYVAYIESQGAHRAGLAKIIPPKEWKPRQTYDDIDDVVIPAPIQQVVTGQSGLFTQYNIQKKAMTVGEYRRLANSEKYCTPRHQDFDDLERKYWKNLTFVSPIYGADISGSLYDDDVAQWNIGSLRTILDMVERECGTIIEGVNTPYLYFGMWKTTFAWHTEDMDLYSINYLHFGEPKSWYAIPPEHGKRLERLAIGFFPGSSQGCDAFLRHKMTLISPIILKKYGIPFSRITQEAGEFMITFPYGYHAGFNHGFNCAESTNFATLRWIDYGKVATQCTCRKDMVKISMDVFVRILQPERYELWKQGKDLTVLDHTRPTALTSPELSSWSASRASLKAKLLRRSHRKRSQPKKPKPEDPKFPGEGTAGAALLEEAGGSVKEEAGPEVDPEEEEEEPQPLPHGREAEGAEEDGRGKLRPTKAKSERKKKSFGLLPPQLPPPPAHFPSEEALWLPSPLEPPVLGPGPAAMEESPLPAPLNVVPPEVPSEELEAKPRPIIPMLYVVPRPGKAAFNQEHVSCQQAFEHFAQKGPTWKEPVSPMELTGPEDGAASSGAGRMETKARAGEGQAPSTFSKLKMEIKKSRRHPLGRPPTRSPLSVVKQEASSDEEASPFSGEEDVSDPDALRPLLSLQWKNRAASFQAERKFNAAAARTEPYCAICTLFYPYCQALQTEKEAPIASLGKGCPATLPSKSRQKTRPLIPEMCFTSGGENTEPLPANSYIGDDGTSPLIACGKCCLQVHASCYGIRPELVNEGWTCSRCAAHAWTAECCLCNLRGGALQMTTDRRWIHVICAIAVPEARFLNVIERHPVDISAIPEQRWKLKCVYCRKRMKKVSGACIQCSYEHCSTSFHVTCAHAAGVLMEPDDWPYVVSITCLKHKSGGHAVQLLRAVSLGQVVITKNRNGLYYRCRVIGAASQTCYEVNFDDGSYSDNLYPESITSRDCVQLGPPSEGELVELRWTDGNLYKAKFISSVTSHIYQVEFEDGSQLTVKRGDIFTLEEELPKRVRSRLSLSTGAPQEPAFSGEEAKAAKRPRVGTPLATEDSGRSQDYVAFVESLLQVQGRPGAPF
Protocol: as §1, §2

[3] = system: H3K4 methylation; experiment: Histone mass spectrometry of H3K4 methylation in PHH; assay type: cell-based, human; conditions: uninfected PHH; 10 μM every 3 days; Day 7
Protocol: Approximately 25 million PHH from Donor (Bioreclamation) were plated on collagen coated (Coating Matrix kit, Life Technologies, Cat. #R-011-K) plates (coated for 30 minutes at 37°C and subsequently washed twice with PHH plating medium). The PHH plating medium was removed after 16 hours and replaced with PHH maintenance medium (Day 0). […] Modifications to the manufacturer’s protocol included two PBS washes prior to adding the histone extraction buffer to the cells, precipitation of eluted histones in 8% perchloric acid, and a single wash in cold acetone containing 0.2% HCl.
Fresh 1:100 propionic anhydride:water reagent was prepared and 1 μl of mixture was added immediately to the histone sample with vortexing and incubated for 5 minutes at 25°C. The reaction was quenched with 1 μl of 80 mM hydroxylamine for 20 minutes at 25°C. […]
1 μl of sample was injected using a Thermo Fischer Scientific Ultimate 3000 Autosampler (San Jose, CA) onto a 15 cm x 75 μm Thermo Fischer Scientific ES812 Easyspray nano column with 5 μm particle size. […] Each sample was analyzed three times.
Data was searched using Thermo Fischer Scientific Proteome Discoverer V2.1 software. […] The ratio of drug treated/control was calculated for each sample and then corrected using the average protein level ratio to account for differences in total protein between control and treated samples.

Chain of KDM3B (Q7LBC6 whole entry): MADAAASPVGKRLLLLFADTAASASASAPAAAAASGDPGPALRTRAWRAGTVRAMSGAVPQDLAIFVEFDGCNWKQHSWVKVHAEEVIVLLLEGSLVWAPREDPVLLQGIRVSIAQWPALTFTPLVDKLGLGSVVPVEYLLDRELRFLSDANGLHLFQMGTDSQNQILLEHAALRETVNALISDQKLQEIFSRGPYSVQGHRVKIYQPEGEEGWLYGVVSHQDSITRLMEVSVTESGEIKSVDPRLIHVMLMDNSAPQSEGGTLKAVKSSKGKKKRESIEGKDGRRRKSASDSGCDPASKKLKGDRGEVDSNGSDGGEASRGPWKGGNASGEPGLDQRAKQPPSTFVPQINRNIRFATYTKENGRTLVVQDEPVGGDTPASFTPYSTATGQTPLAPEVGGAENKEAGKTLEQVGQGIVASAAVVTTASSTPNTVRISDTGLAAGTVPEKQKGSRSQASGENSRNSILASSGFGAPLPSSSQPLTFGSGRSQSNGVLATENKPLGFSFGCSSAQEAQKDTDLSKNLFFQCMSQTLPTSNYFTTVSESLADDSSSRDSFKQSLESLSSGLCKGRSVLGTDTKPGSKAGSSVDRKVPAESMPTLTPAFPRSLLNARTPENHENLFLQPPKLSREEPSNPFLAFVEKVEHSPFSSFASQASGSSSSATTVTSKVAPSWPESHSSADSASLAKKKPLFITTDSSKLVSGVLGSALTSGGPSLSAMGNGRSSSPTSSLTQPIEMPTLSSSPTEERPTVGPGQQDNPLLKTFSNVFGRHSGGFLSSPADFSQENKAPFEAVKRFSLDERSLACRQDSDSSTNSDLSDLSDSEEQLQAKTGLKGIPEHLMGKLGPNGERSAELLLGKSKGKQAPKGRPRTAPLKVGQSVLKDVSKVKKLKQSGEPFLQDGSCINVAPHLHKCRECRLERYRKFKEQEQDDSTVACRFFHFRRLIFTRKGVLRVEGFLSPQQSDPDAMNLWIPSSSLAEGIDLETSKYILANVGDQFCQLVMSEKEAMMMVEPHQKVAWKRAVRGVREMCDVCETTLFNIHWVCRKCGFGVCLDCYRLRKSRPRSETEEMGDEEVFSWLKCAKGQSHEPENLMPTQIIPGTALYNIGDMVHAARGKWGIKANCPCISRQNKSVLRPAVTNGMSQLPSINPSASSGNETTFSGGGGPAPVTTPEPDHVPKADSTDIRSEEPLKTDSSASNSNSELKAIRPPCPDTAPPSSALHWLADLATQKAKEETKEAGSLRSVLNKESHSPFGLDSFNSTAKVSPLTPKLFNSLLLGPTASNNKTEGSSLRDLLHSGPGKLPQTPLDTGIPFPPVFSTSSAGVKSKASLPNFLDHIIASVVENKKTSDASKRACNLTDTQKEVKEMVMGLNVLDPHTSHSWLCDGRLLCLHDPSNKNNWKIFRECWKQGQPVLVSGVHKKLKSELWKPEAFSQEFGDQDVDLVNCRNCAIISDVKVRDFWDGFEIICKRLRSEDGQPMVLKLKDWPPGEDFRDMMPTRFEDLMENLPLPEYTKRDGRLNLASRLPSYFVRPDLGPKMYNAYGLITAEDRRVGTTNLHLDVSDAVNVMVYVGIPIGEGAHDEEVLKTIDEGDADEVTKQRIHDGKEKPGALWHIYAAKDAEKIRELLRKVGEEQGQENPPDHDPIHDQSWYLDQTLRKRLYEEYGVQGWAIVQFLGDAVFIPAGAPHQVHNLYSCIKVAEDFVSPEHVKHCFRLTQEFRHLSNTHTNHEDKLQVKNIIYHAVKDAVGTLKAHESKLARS

Structure (SMILES) | Fold Selectivity Compared to KDM5A ([1]; IC50 of KDM3B over KDM5A) | IC50 ([1]; enzyme concentration 0.1 nM) | Fold Selectivity Compared to KDM5A ([2]; IC50 of KDM4B over KDM5A) | IC50 ([2]; enzyme concentration 1 nM) | change in H3K4 methylation species by quantitative mass spectrometry [3]
CCN(CCN(C)C)C(=O)CNCc1cc(C(=O)O)ccn1 [GS-080] | > 27,800 fold | > 10000 nM | 13 fold | 4.7 nM | 
CCOC(=O)c1ccnc(CNCC(=O)N(CC)CCN(C)C)c1 [GS-5801] |  |  |  |  | predominantly caused an increase in trimethylated H3K4 (H3K4me3)
